In patent US9521848B2, “Tetrazolinone compound and use therefor” (Sumitomo Chemical Company, Limited, priority 2013, dated 2016):

Assays:
[1] = tested on: cotton aphid (Aphis gossypii); test: Cotton aphid control test on cucumber, spray (Test Example 19); assay type: in vivo; settings: 500 ppm, 20 mL sprayed on cucumber with 30 aphids; surviving insects counted after 6 days
Experimental: A water dilution (test chemical solution) containing a surfactant prepared by adjusting so as to contain a predetermined concentration (500 ppm) of the present compound 21 was used as a test chemical solution. Thirty (30) heads of cotton aphid (Aphis gossypii) (including adults and larvae) were released on the leaves of cucumber (cultivar; […]) grown in a polyethylene cup until the first true leaf was developed. Next day, 20 mL of the above test chemical solution was sprayed. After 6 days, the number of the surviving insects was counted and the control value was calculated by the following equation. Control value (%)={1-(Cb×Tai)/(Cai×Tb)}×100 wherein symbols in the equation represent the followings: Cb: Number of insects before spraying chemical solution in untreated area; Cai: Number of surviving insects in untreated area; Tb: Number of insects before spraying chemical solution in treated area; and Tai: Number of surviving insects in treated area.

[2] = tested on: wheat rust fungus (Puccinia recondita); test: Wheat rust control test, foliar spray before inoculation (Test Examples 3, 4, Comparative Test Example); assay type: in vivo; settings: 200 ppm foliar spray, wheat (SHIROGANE), inoculated 5 days after spraying
Experimental: The control effect was evaluated by visually observing the area of lesion spots on each of test plants at the time of investigation, and comparing the area of lesion spots on a plant treated with the present compound with that on an untreated plant.
Each of plastic pots was filled with sandy loam and wheat (cultivar: SHIROGANE) was sowed and grown in a greenhouse for 9 days. Then, each water dilution containing a surfactant prepared by adjusting so as to contain a predetermined concentration (500 ppm) of any one compound of the present compounds 1, 18, 19, 20, 21, 27, 30, and 38 was sprayed over stems and leaves of the wheat so that it sufficiently adhered to the surface of the leaves of the wheat. After spraying, the plant was air-dried so as to dry the dilution on the surface of the leaves. After spraying, the plant was air-dried and cultivated at 20° C. for 5 days under illumination, and then inoculated by sprinkling with spores of wheat rust fungus (Puccinia recondita). After the inoculation, the plant was left to stand at 23° C. for one day under dark and high humidity condition, and cultivated under illumination at 20° C. for 8 days, and then the area of lesion spots was investigated.
Each of plastic pots was filled with sandy loam and wheat (cultivar: SHIROGANE) was sowed and grown in a greenhouse for 9 days. […]

| Structure (SMILES) | control value [1] [%] | area of lesion spots on the treated plant relative to that on an untreated plant [2] [%] |
| --- | --- | --- |
| Cc1ccc(-c2cnc(OCc3c(C)cccc3-n3nnn(C)c3=O)c(C)c2)cc1 [Present Compound 21] | ≥ 90 |  |
| Cc1cccc(-n2nnn(C)c2=O)c1COc1cncc(Oc2ccccc2)c1 [1-[2-{5-phenoxypyridin-3-yloxymethyl}-3-methylphenyl]-4-methyl-1,4-dihydrotetrazol-5-one] |  | ≥ 70 |
